For orientation: IC50 means the point on the concentration scale where inhibition reaches its midpoint.

The experiment relates to GT-1a pRLuc H771b 75 S/I subgenomic replicon cell line. The experiment in a line: HCV GT-1a replicon luciferase reporter assay. It is filed as cell-based. Particulars: Hepatitis C virus, GT1A, 72 h, read-out: GT-1a (IC50) (nM). The source says: Determination of compounds HCV GT1b inhibitory replicon activity using the replicon luciferase reporter assay
The 2209-23 cell line was developed at Roche by stable transfection of the hepatoma cell line Huh-7 with a GT-1b Con1 subgenomic bicistronic replicon as previously described. Subgenomic replicon cell line was established in cured Huh7 cells, obtained from R. Bartenschlager (J. Virol. 2003 March; 77 (5):3007-19) The GT-1a H77 subgenomic replicon vector pRLuc H771b 75 S/I, was created by replacing the non structural region of the GT-1b Con1 subgenomic replicon by the one of the H77 strain, except for the first 75 amino acids of the NS3 protein that are from GT-1b Con1 strain. (J. Virol. 2001 77:5352-59) The GT-1a pRLuc H771b 75 S/I subgenomic replicon cell line was established in cured Huh7 cells, obtained from R. Bartenschlager. (J. Virol. 2003 March; 77 (5):3007-19)
All the subgenomic replicon cell lines were cultured in Dulbecco's Modified Eagle Medium (DMEM-Glutamax™-I; Invitrogen Cat #10569-010). The medium was supplemented with 10% Fetal Bovine Serum (Invitrogen Cat #10082-147), 1% penicillin/streptomycin (Mediatech Cat #30-002-CI) and 500 μg/ml of G418 (Mediatech Cat #30-234-CI). Cells were maintained at 37° C. in a humidified 5% CO2 atmosphere.
2209-23 cells were plated at a cell density of 5000 cells per well in 96 well plates (Becton Dickinson, Cat #35 3296). Cells were plated in 90 μl of Dulbecco's Modified Eagle Medium (DMEM-Glutamax™-I), (Invitrogen Cat #10569-010) medium was supplemented with 5% Fetal Bovine Serum (Invitrogen Cat #10082-147), 1% penicillin/streptomycin (Mediatech Cat #30-002-CI). The pRluc H771b 75 S/I cells were plated in 96-well plate at 3000 cells/well in DMEM-Glutamax™-I containing 5% FBS and 1% penicillin/streptomycin in 90 μl final volume. Cells were allowed to equilibrate for 24 hours at 37° C. and 5% CO2 at which time compounds were added. Compounds (or medium as a control) were added 24 hours post-plating in 3 fold dilutions at a final DMSO concentration of 1% in 10 ul volume. Renilla luciferase reporter signal was read 72 hours after addition of compounds using the Renilla Luciferase Assay System (Promega, cat #E2820). EC50 values were defined as the compound concentration at which a 50% reduction in the levels of renilla luciferase reporter was observed as compared to control samples in the absence of compound and was determined by non-linear fitting of compound dose-response data. The EC50 was approximated if maximum percentage inhibition was less than 90% and more than 70%.
Background: In antiviral work, replicon cells carry a viral genome segment that copies itself.
For the compound `COC(=O)N[C@H]1CCc2cccc3c2N(C1=O)[C@H](c1ncc(-c2ccc(-c4ccc(-c5ccc6nc([C@@H]7CCCN7C(=O)[C@@H](NC(=O)OC)C(C)C)[nH]c6c5)nc4)cc2)[nH]1)C3` [Compound I-7, ((2S,5S)-2-{5-[4-(6-{2-[(S)-1-((S)-2-Methoxycarbonylamino-3-methyl-butyryl)-pyrrolidin-2-yl]-3H-benzoimidazol-5-yl}-pyridin-3-yl)-phenyl]-1H-imidazol-2-yl}-4-oxo-1,2,4,5,6,7-hexahydro-azepino[3,2,1-hi]indol-5-yl)-carbamic acid methyl ester], the IC50 came out at 32.2 nM.

On to `COC(=O)N[C@H]1CCc2cccc3c2N(C1=O)[C@H](c1nc2ccc(-c4ccc(-c5ccc(-c6cnc([C@@H]7CC(F)(F)CN7C(=O)[C@@H](NC(=O)OC)C(C)C)[nH]6)cc5)nc4)cc2[nH]1)C3` [Compound I-13, ((2S,5S)-2-{6-[6-(4-{2-[(S)-1-((S)-2-Methoxycarbonylamino-3-methyl-butyryl)-4,4-difluoro-pyrrolidin-2-yl]-3H-imidazol-4-yl}-phenyl)-pyridin-3-yl]-1H-benzoimidazol-2-yl}-4-oxo-1,2,4,5,6,7-hexahydro-azepino[3,2,1-hi]indol-5-yl)-carbamic acid methyl ester], for which the half-maximal inhibitory concentration (IC50) was determined as 41.8 nM.

Regarding `COC(=O)N[C@H]1CCc2cccc3c2N(C1=O)[C@H](c1ncc(-c2ccc(-c4ccc(-c5cnc([C@@H]6C[C@@H](F)CN6C(=O)[C@@H](NC(=O)OC)C(C)C)[nH]5)cc4)cc2)[nH]1)C3` [Compound I-2, {(2S,5S)-2-[5-(4′-{2-[(2S,4R)-4-Fluoro-1-((S)-2-methoxycarbonylamino-3-methyl-butyryl)-pyrrolidin-2-yl]-3H-imidazol-4-yl}-biphenyl-4-yl)-1H-imidazol-2-yl]-4-oxo-1,2,4,5,6,7-hexahydro-azepino[3,2,1-hi]indol-5-yl}-carbamic acid methyl ester], the IC50 amounted to 18.5 nM.

In the case of `COC(=O)N[C@H]1CCc2cccc3c2N(C1=O)[C@H](c1ncc(-c2ccc(-c4ccc(-c5cnc([C@@H]6CCCN6C(=O)[C@@H](NC(=O)OC)C(C)C)[nH]5)cn4)cc2)[nH]1)C3` [Compound I-34, ((2S,5S)-2-{5-[4-(5-{2-[(S)-1-((S)-2-Methoxycarbonylamino-3-methyl-butyryl)-pyrrolidin-2-yl]-3H-imidazol-4-yl}-pyridin-2-yl)-phenyl]-1H-imidazol-2-yl}-4-oxo-1,2,4,5,6,7-hexahydro-azepino[3,2,1-hi]indol-5-yl)-carbamic acid methyl ester], the 50% inhibitory concentration (IC50) was determined as 86.7 nM.

Regarding `COC(=O)N[C@H]1CCc2cccc3c2N(C1=O)[C@H](c1ncc(-c2ccc(-c4ccc(-c5[nH]c([C@@H]6CCCN6C(=O)[C@@H](NC(=O)OC)C(C)C)nc5Cl)cc4)cc2)[nH]1)C3` [Compound I-30, {(2S,5S)-2-[5-(4′-{5-Chloro-2-[(S)-1-((S)-2-methoxycarbonylamino-3-methyl-butyryl)-pyrrolidin-2-yl]-3H-imidazol-4yl}-biphenyl-4-yl)-1H-imidazol-2-yl]-4-oxo-1,2,4,5,6,7-hexahydro-azepino[3,2,1-hi]indol-5-yl}-carbamic acid methyl ester], the IC50 stood at 1 nM.

Regarding `COC(=O)N[C@H]1CCc2cccc3c2N(C1=O)[C@H](c1ncc(-c2ccc(-c4ncc(-c5cnc([C@@H]6CC(F)(F)CN6C(=O)[C@@H](NC(=O)OC)C(C)C)[nH]5)cn4)cc2)[nH]1)C3` [Compound I-57, ((2S,5S)-2-{4-[4-(5-{2-[(S)-4,4-Difluoro-1-(2-methoxycarbonylamino-3-methyl-butyryl)-pyrrolidin-2-yl]-3H-imidazol-4-yl}-pyrimidin-2-yl)-phenyl]-1H-imidazol-2-yl}-4-oxo-1,2,4,5,6,7-hexahydro-azepino[3,2,1-hi]indol-5-yl)-carbamic acid methyl ester], the IC50 was 17.1 nM.

On to `COC(=O)N[C@H]1CCc2cccc3c2N(C1=O)[C@H](c1nc2ccc(-c4ccc(-c5ccc(-c6cnc([C@@H]7CCCN7C(=O)[C@@H](NC(=O)OC)C(C)C)[nH]6)cc5)nc4)cc2[nH]1)C3` [Compound I-12, ((2S,5S)-2-{6-[6-(4-{2-[(S)-1-((S)-2-Methoxycarbonylamino-3-methyl-butyryl)-pyrrolidin-2-yl]-3H-imidazol-4-yl}-phenyl)-pyridin-3-yl]-1H-benzoimidazol-2-yl}-4-oxo-1,2,4,5,6,7-hexahydro-azepino[3,2,1-hi]indol-5-yl)-carbamic acid methyl ester], for which the half-inhibitory concentration (IC50) is 18.6 nM.

`CC[C@H](C)[C@H](NC(=O)OC)C(=O)N1CCC[C@H]1c1ncc(-c2ccc(-c3cnc4cc(-c5cnc([C@@H]6Cc7cccc8c7N6C(=O)[C@@H](NC(=O)OC)CC8)[nH]5)ccc4n3)cc2)[nH]1` [Compound I-56, ((2S,5S)-2-{5-[2-(4-{2-[(S)-1-((2S,3S)-2-Methoxycarbonylamino-3 methyl-pentanoyl)-pyrrolidin-2-yl]-3H-imidazol-4-yl}-phenyl)quinoxalin-6-yl]-1H-imidazol-2-yl}-4-oxo-1,2,4,5,6,7-hexahydro-azepino[3,2,1-hi]indol-5-yl)-carbamic acid methyl ester]: the IC50 is 3 nM.

In the case of `CC[C@H](C)[C@H](NC(=O)OC)C(=O)N1CCC[C@H]1c1ncc(-c2ccc3nc(-c4ccc(-c5cnc([C@@H]6Cc7cccc8c7N6C(=O)[C@@H](NC(=O)OC)CC8)[nH]5)cc4)cnc3c2)[nH]1` [Compound I-53, ((2S,5S)-2-{5-[4-(6-{2-[(S)-1-((2S,3S)-2-Methoxycarbonylamino-3-methyl-pentanoyl)-pyrrolidin-2-yl]-3H-imidazol-4-yl}-quinoxalin-2-yl)-phenyl]-1H-imidazol-2-yl}-4-oxo-1,2,4,5,6,7-hexahydroazepino[3,2,1-hi]indol-5yl)-carbamic acid methyl ester], the IC50 came to 1.36 nM.

For the compound `COC(=O)N[C@@H](C)C(=O)N1CCC[C@H]1c1ncc(-c2ccc(-c3ccc(-c4cnc([C@@H]5Cc6cccc7c6N5C(=O)[C@@H](NC(=O)OC)CC7)[nH]4)cc3)cc2)[nH]1` [Compound I-49, {(2S,5S)-2-[5-(4-{2-[(S)-1-((S)-2-Methoxycarbonylamino-propionyl)-pyrolidin-2-yl]-3H-imidazol-4-yl}-biphenyl-4-yl)-1H-imidazol-2-yl]-4-oxo-1,2,4,5,6,7-hexahydro-azepino[3,2,1-hi]indol-5-yl}-carbamic acid methyl ester], the IC50 was 3.91 nM.

In the case of `COC(=O)N[C@H]1CCc2cccc3c2N(C1=O)[C@H](c1ncc(-c2ccc(-c4ccc(-c5cnc([C@@H]6C[C@H](C#N)CN6C(=O)[C@@H](NC(=O)OC)C(C)C)[nH]5)cc4)cc2)[nH]1)C3` [Compound I-40, {(2S,5S)-2-[5-(4′-{2-[(2S,4S)-4-Cyano-1-((S)-2-methoxycarbonylamino-3-methyl-butyryl)-pyrrolidin-2-yl]-3H-imidazol-4-yl}-biphenyl-4-yl)-1H-imidazol-2-yl]-4-oxo-1,2,4,5,6,7-hexahydro-azepino[3,2,1-hi]indol-5-yl}-carbamic acid methyl ester], the IC50 was found to be 7.85 nM.

Consider `COC(=O)N[C@H]1CCc2cccc3c2N(C1=O)[C@H](c1ncc(-c2ccc(-c4ccc(-c5cnc([C@@H]6CCCN6C(=O)[C@@H](NC(=O)OC)C(C)C)[nH]5)cc4F)cc2)[nH]1)C3` [Compound I-37, {(2S,5S)-2-[5-(2′-Fluoro-4′-{2-[(S)-1-((S)-2-methoxycarbonylamino-3-methyl-butyryl)-pyrrolidin-2-yl]-1H-imidazol-4-yl}-biphenyl-4-yl)-1H-imidazol-2-yl]-4-oxo-1,2,4,5,6,7-hexahydro-azepino[3,2,1-hi]indol-5-yl}-carbamic acid methyl ester], for which the IC50 was 5.22 nM.

In the case of `COC(=O)N[C@H]1CCc2cccc3c2N(C1=O)[C@H](c1ncc(-c2cnc(-c4ccc5cc(-c6cnc([C@@H]7CCCN7C(=O)[C@@H](NC(=O)OC)C(C)C)[nH]6)ccc5c4)nc2)[nH]1)C3` [Compound I-17, ((2S,5S)-2-{5-[2-(6-{2-[(S)-1-((S)-2-Methoxycarbonylamino-3-methyl-butyryl)-pyrrolidin-2-yl]-3H-imidazol-4-yl}-naphthalen-2-yl)-pyrimidin-5-yl]-1H-imidazol-2-yl}-4-oxo-1,2,4,5,6,7-hexahydro-azepino[3,2,1-hi]indol-5-yl)-carbamic acid methyl ester], the IC50 was 3.2 nM.
